Molecular target: T1, wildtype GAT-1 + GAT-1(E16X) (Rattus norvegicus, UniProt P23978)
T1 construct: expressed in transfected cells; host or cells: HEK293T cells
Assay: 3H GABA uptake, HEK293T, mixture of wildtype and mutant cDNAs ("heterozygous")
Assay type: cell-based
Conditions: wildtype:E16X cDNAs 1:1; PBA 2 mM, 24 hrs
Description: GABA uptake activity was measured by the high-throughput 3H radio-labeling GABA uptake on a liquid scintillator with QuantaSmart. […] HEK293T cells were transfected with the wildtype or the mutant GAT-1^YFP cDNAs alone for 48 hr. […] HEK293T cells were transfected with the wildtype GAT-1^YFP alone or in mixture of the wildtype or the mutant cDNAs for 48 hr. In the mixed condition, the ratio of the wildtype GAT-1 with pcDNA or the mutant cDNAs are 1:1 with the total cDNA amount of 0.5 μg. […] Both wt and the mutant were normalized to its own DMSO treated conditions. 966 stands for the wildtype treated with CI-966 (50 μM) while 711 stands for NNC-711 (35 μM). (N=4-7 different transfections. In FIG. 4A and FIG. 4B, *P<0.05, **P<0.01, ***p<0.001 vs. wt 0. In FIG. C and FIG. 4D, *P<0.05, **P<0.01, ***p<0.001 vs. its own DMSO treated. In FIG. 4C, ns stands for no significance. One-way analysis of variance (ANOVA) and Newman-Keuls test. Values were expressed as mean±S.E.M.
The plasmid cDNA encoding enhanced yellow fluorescent protein (EYFP)-tagged rat GAT-1 has been previously described. […]
Briefly, cells were cultured in […] dishes for 3 days before the GABA uptake experiment in DMEM with 10% fetal bovine serum and 1% penicillin/streptomycin. […] Glacial acetic acid was added, and lysates were then determined on a liquid scintillator with QuantaSmart. […]

Structure (SMILES): O=C(O)CCCc1ccccc1 [PBA, 4-phenylbutyric acid]
- GABA uptake normalized to its own DMSO treated condition: 1.149±0.025
